Laboratory results: ChEMBL document CHEMBL3632534, “Design and synthesis of aloe-emodin derivatives as potent anti-tyrosinase, antibacterial and anti-inflammatory agents” (Bioorg Med Chem Lett, 2015)
Activity calls are given as the source filed them. The calls are words filed in the database; no cut-off is given here.

Tests used:
[1] = target: T1, Tyrosinase (Agaricus bisporus) (UniProt O42713); test: Inhibition of diphenolase activity of mushroom tyrosinase using L-DOPA as substrate assessed as formation of the DOPA chrome at 100 uM preincubated for 10 mins followed by substrate addition measured for 1 min by spectrophotometric analysis relative to control
T1 sequence (whole entry): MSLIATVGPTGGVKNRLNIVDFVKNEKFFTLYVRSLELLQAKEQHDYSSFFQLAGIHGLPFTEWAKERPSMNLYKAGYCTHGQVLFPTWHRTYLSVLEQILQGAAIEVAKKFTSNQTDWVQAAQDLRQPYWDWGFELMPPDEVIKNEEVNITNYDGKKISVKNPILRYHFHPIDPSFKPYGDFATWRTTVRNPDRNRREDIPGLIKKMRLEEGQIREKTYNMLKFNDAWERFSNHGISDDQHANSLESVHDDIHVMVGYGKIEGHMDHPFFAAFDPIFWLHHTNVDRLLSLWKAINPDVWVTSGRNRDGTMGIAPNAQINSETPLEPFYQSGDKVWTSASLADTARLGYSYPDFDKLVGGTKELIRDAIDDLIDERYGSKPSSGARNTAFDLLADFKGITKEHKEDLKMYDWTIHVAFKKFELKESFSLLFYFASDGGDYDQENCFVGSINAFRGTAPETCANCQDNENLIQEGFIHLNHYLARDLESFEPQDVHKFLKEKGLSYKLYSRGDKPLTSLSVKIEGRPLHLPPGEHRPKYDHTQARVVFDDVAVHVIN

[2] = Drug degradation at 20 degC measured for 15 days; type: physicochemical; details: read-out: Drug degradation
[3] = target: T2, Tyrosinase (Agaricus bisporus, UniProt O42713)
T2 sequence (O42713 whole entry): T1 sequence (whole entry)
Description: Inhibition of diphenolase activity of mushroom tyrosinase using L-DOPA as substrate assessed as formation of the DOPA chrome preincubated for 10 mins followed by substrate addition measured for 1 min by spectrophotometric analysis

[4] = organism: Mus musculus; test: animal or person; details: Kunming, Ear, po, read-out: INH
Description: Antiinflammatory activity in Kunming mouse assessed as inhibition of croton oil-induced ear swelling at 0.105 mmol/kg, ig administered for 3 days followed by croton oil challenge at 1 hrs post last dose measured after 4 hrs relative to control

[5] = target: T1, Tyrosinase (Agaricus bisporus); test: Reversible inhibition of diphenolase activity of mushroom tyrosinase assessed as L-DOPA oxidation at 10 to 50 uM
[6] = target: T1, Tyrosinase (Agaricus bisporus); test: Competitive inhibition of diphenolase activity of mushroom tyrosinase assessed as L-DOPA oxidation at 15 to 45 uM by Lineweaver-Burk plot analysis
[7] = target: T1, Tyrosinase (Agaricus bisporus); test: […] inhibition of diphenolase activity of mushroom tyrosinase assessed as L-DOPA oxidation at 10 to 50 uM

Row | Structure (SMILES) | inhibition [1] | IC50 [3] [µM] | also measured
1 | O=C1c2cccc(O)c2C(=O)c2c(O)cc(/C=N/OCc3ccccc3)cc21 | inactive |  | 
2 | C=CCOc1cccc2c1C(=O)c1c(OCC=C)cc(/C=N/OCC)cc1C2=O | inactive |  | 
3 | OC[C@H]1O[C@@H](Oc2ccc(O)cc2)[C@H](O)[C@@H](O)[C@@H]1O [ARBUTIN] |  |  | degraded at 360 h [2]: 10%
4 | CO/N=C/c1cc(O)c2c(c1)C(=O)c1cccc(O)c1C2=O | 12.9% | > 200 | 
5 | CC(=O)Oc1cccc2c1C(=O)c1c(OC(C)=O)cc(C(=O)O)cc1C2=O [DIACEREIN] |  |  | inhibition in vivo at 105 µmol/kg [4]: 39.1%
6 | COc1cccc2c1C(=O)c1c(OC)cc(CO)cc1C2=O | 9.86% | > 200 | inhibition in vivo at 105 µmol/kg [4]: 35.2%
7 | O=Cc1cc(O)c2c(c1)C(=O)c1cccc(O)c1C2=O | 49.4% | 109 | inhibition in vivo at 105 µmol/kg [4]: 50.6%
8 | C=CCOc1cccc2c1C(=O)c1c(OCC=C)cc(C=O)cc1C2=O | 55.4% | 92.4 | 
9 | COc1cccc2c1C(=O)c1c(OC)cc(/C=N/NC(N)=S)cc1C2=O | 76.4% | 28 | 
10 | C=CCOc1cccc2c1C(=O)c1c(OCC=C)cc(/C=N/OC)cc1C2=O | inactive |  | 
11 | CCO/N=C/c1cc(OC)c2c(c1)C(=O)c1cccc(OC)c1C2=O | inactive |  | 
12 | CO/N=C/c1cc(OC)c2c(c1)C(=O)c1cccc(OC)c1C2=O | inactive |  | 
13 | CCOCOc1cccc2c1C(=O)c1c(OCOCC)cc(C=O)cc1C2=O | inactive |  | 
14 | O=C1c2cccc(O)c2C(=O)c2c(O)cc(/C=N/O)cc21 | inactive |  | 
15 | C=CCOc1cccc2c1C(=O)c1c(OCC=C)cc(/C=N/O)cc1C2=O | 57% | 83.2 | 
16 | CCCCOc1cccc2c1C(=O)c1c(OCCCC)cc(CO)cc1C2=O | 73.6% | 32.8 | inhibition [5]: Active; inhibition [6]: Active
17 | CCOCOc1cccc2c1C(=O)c1c(OCOCC)cc(CO)cc1C2=O | 7.45% | > 200 | 
18 | C=CCOc1cccc2c1C(=O)c1c(OCC=C)cc(CO)cc1C2=O | 58.6% | 91 | 
19 | NC(=S)N/N=C/c1cc(O)c2c(c1)C(=O)c1cccc(O)c1C2=O | 78.6% | 24.5 | inhibition [7]: Active
20 | COc1cccc2c1C(=O)c1c(OC)cc(C=O)cc1C2=O | inactive |  | inhibition in vivo at 105 µmol/kg [4]: 42.6%
21 | CCO/N=C/c1cc(O)c2c(c1)C(=O)c1cccc(O)c1C2=O | 18.3% | > 200 | 
22 | CCOCOc1cccc2c1C(=O)c1c(OCOCC)cc(/C=N/NC(N)=S)cc1C2=O | 65.3% | 58.1 | 
